Among the data in patent publication US20060004070A1, “Fungicidal active substance combinations” (priority 2002, published 2006) are Efficacy in % values, retold here.

For one assay, the system named is Leptosphaeria nodorum. Description: Leptosphaeria nodorum test (wheat)/protective. In kind it is in vivo. As to conditions: protective spray, application rate 100 g/ha, evaluation 10 days after inoculation. As to the method: Leptosphaeria nodorum test (wheat)/protective Solvent: 25 parts by weight of N,N-dimethylacetamide Emulsifier: 0.6 part by weight of alkylaryl polyglycol ether To produce a suitable preparation of active compound, 1 part by weight of active compound combination is mixed with the stated amounts of solvent and emulsifier, and the concentrate is diluted with water to the desired concentration. To test for protective activity, young plants are sprayed with the preparation of active compound at the stated application rate. After the spray coating has dried on, the plants are sprayed with a spore suspension of Leptosphaeria nodorum. The plants remain in an incubation cabin at 20° C. and 100% relative atmospheric humidity for 48 hours. The plants are placed in a greenhouse at a temperature of about 15° C. and a relative atmospheric humidity of 80%. Evaluation is carried out 10 days after the inoculation. 0% means an efficacy which corresponds to that of the control, whereas an efficacy of 100% means that no infection is observed.

A further assay has as its system Puccinia recondita. Briefly: Puccinia test (wheat)/curative. It is filed as in vivo. The settings on record: curative spray 48 hours after inoculation, application rate 25 g/ha, evaluation 10 days after inoculation. As to the method: Puccinia test (wheat)/curative
Solvent: 25 parts by weight of N,N-dimethylacetamide
Emulsifier: 0.6 part by weight of alkylaryi polyglycol ether
To produce a suitable preparation of active compound, 1 part by weight of active compound combination is mixed with the stated amounts of solvent and emulsifier, and the concentrate is diluted with water to the desired concentration.
To test for curative activity, young plants are inoculated with a spore suspension of Puccinia recondita in a 0.1% strength aqueous agar solution. 48 hours after the inoculation, the plants are sprayed with the preparation of active compound at the stated application rate.
The plants are placed in a greenhouse at a temperature of about 20° C. and a relative atmospheric humidity of about 80% to promote the development of rust pustules.
Evaluation is carried out 10 days after the inoculation. 0% means an efficacy which corresponds to that of the control, whereas an efficacy of 100% means that no infection is observed.

For `CO/N=C(/C(=O)OC)c1ccccc1CO/N=C(\C)c1cccc(C(F)(F)F)c1` [Ex. (I), 2-[α-{[(α-methyl-3-trifluoromethylbenzyl)imino]oxy}-o-tolyl]glyoxylic acid methyl ester O-methyl oxime], the Efficacy in % stood at 67% in the assay with Leptosphaeria nodorum and 0% with Puccinia recondita.

As for `OC(Cc1ccccc1Cl)(Cn1nc[nH]c1=S)C1(Cl)CC1` (stereo not shown) [Ex. (II)], the Efficacy in % is on record as 56% with Leptosphaeria nodorum and 43% with Puccinia recondita.
